ChEMBL document CHEMBL1145065, “Thalidomide metabolites and analogues. 3. Synthesis and antiangiogenic activity of the teratogenic and TNFalpha-modulatory thalidomide analogue 2-(2,6-dioxopiperidine-3-yl)phthalimidine” (2003)

What was measured:
[1] = species: Rattus norvegicus; assay: Inhibition of angiogenesis (new microvessel growth) in rat aortic ring model at 200 uM in Endothelial basal medium (EBM) and Dimethylsulfoxide (DMSO); type: functional; conditions: Aorta
[2] = species: Rattus norvegicus; assay: Inhibition of angiogenesis (new microvessel growth) in rat aortic ring model at 100 uM in Endothelial basal medium (EBM) and Dimethylsulfoxide (DMSO); type: functional; conditions: Aorta

Compound: O=C1CCC(N2Cc3ccccc3C2=O)C(=O)N1 (configuration not stated)
- inhibition at 200 µM [1]: 30%
- inhibition at 100 µM [2]: 30%
